# In BindingDB's records for doi:10.1021/jm00057a008 (American Cyanamid, 1993):
# Molecular target: Platelet-activating factor receptor (Oryctolagus cuniculus)
# Assay: Inhibition of PAF-induced platelet aggregation in rabbit platelet rich plasma
row,Compound,IC50 [µM]
1,"CCCCCCCCCCCCCCOc1ccc(C(=O)N(Cc2cccc[n+]2C)C(C)=O)cc1OCCCCCCCCCCCCCC [2-{[Acetyl-(3,4-bis-tetradecyloxy-benzoyl)-amino]-methyl}-1-methyl-pyridinium; iodide]",> 10
2,CCCCCCCCCCCCCCOc1ccc(C(=O)N(Cc2cccc[n+]2[O-])C(C)=O)cc1C(C)(C)C [N-Acetyl-3-tert-butyl-N-(1-oxy-pyridin-2-ylmethyl)-4-tetradecyloxy-benzamide],> 10
3,CCCCCCCCCCOc1ccc(C(=O)N(Cc2cccc[n+]2C)C(C)=O)cc1C(C)(C)C [2-{[Acetyl-(3-tert-butyl-4-decyloxy-benzoyl)-amino]-methyl}-1-methyl-pyridinium; iodide],10
4,CCCCCCCCCCCCCCOc1ccc(C(=O)N(Cc2cccc[n+]2C)C(C)=O)cc1OC [2-{[Acetyl-(3-methoxy-4-tetradecyloxy-benzoyl)-amino]-methyl}-1-methyl-pyridinium; iodide],0.064
5,CCCCCCCCCCCCCCOc1ccc(CN(Cc2cccc[n+]2CC)C(C)=O)cc1 [2-{[Acetyl-(4-tetradecyloxy-benzyl)-amino]-methyl}-1-ethyl-pyridinium; iodide],8.3
6,CCCCCCCCCCCCCCOc1ccc(C(=O)N(Cc2cccc[n+]2Cc2ccccc2)C(C)=O)cc1 [2-{[Acetyl-(4-tetradecyloxy-benzoyl)-amino]-methyl}-1-benzyl-pyridinium; bromide],330
7,CCCCCCCCCCCCCCOc1ccc(C(=O)NC(=O)c2ccc[n+](CCC)c2)cc1OC [3-(3-Methoxy-4-tetradecyloxy-benzoylaminocarbonyl)-1-propyl-pyridinium; iodide],> 10
8,CCCCCCCCCCCCCCOc1ccc(CNC(=O)c2cccc[n+]2CC)cc1 [Trifluoro-methanesulfonate1-ethyl-2-(4-tetradecyloxy-benzylcarbamoyl)-pyridinium;],> 10
9,CCCCCCCCCCCCCCOc1ccc(COC(=O)N(Cc2cccc[n+]2C)C(C)=O)cc1 [2-{[Acetyl-(4-tetradecyloxy-benzyloxycarbonyl)-amino]-methyl}-1-methyl-pyridinium; iodide],> 10
10,CCCCCCCCCCCCCCOc1ccc(C(=O)N(Cc2cccc[n+]2C)C(C)=O)cc1C(C)(C)C [2-{[Acetyl-(3-tert-butyl-4-tetradecyloxy-benzoyl)-amino]-methyl}-1-methyl-pyridinium; iodide],0.022
11,CCCCCCCCCCCCCCOc1ccc(C(=O)N(Cc2cccc[n+]2CCC)C(C)=O)cc1OC [Trifluoro-methanesulfonate2-{[acetyl-(3-methoxy-4-tetradecyloxy-benzoyl)-amino]-methyl}-1-propyl-pyridinium;],0.1
12,CCCCCCCCCCCCCCOc1ccc(CN(Cc2ccc[n+](C)c2)C(C)=O)cc1 [3-{[Acetyl-(4-tetradecyloxy-benzyl)-amino]-methyl}-1-methyl-pyridinium; iodide],> 10
13,CCCCCCCCCCCCCCOc1cc(C(=O)N(Cc2cccc[n+]2C)C(C)=O)ccc1OC [2-{[Acetyl-(4-methoxy-3-tetradecyloxy-benzoyl)-amino]-methyl}-1-methyl-pyridinium; iodide],160
14,CCCCCCCCCCCCCCOc1ccc(C(=O)NCc2cccc[n+]2C)cc1 [1-Methyl-2-[(4-tetradecyloxy-benzoylamino)-methyl]-pyridinium; iodide],> 10
15,CCCCCCCCCCCCCCOc1ccc(C(=O)N(Cc2cccc[n+]2C)C(C)=O)cc1 [2-{[Acetyl-(4-tetradecyloxy-benzoyl)-amino]-methyl}-1-methyl-pyridinium; iodide],0.95
16,"CCCCCCCOc1ccc(C(=O)N(Cc2cccc[n+]2C)C(C)=O)cc1OCCCCCCC [2-{[Acetyl-(3,4-bis-heptyloxy-benzoyl)-amino]-methyl}-1-methyl-pyridinium; iodide]",3.7
17,CCCCCCCCCCCCCCOc1ccc(COC(=O)NCc2cccc[n+]2CC)cc1 [Trifluoro-methanesulfonate1-ethyl-2-[(4-tetradecyloxy-benzyloxycarbonylamino)-methyl]-pyridinium;],> 10
18,CCCCCCCCCCCCCCOc1ccc(C(=O)N(Cc2ccc[n+](C)c2)C(C)=O)cc1 [3-{[Acetyl-(4-tetradecyloxy-benzoyl)-amino]-methyl}-1-methyl-pyridinium; iodide],6.8
19,CCCCCCCCCCCCCCOc1ccc(C(=O)N(Cc2cccc[n+]2CC)C(C)=O)cc1OC [2-{[Acetyl-(3-methoxy-4-tetradecyloxy-benzoyl)-amino]-methyl}-1-ethyl-pyridinium; iodide],0.16
20,CCCCCCCCCCCCCCCCCCNC(=O)Oc1ccc(C(=O)N(Cc2cccc[n+]2C)C(C)=O)cc1C(C)(C)C [2-{[Acetyl-(3-tert-butyl-4-octadecylcarbamoyloxy-benzoyl)-amino]-methyl}-1-methyl-pyridinium; iodide],> 10
21,CCCCCCCCCCCCCCOc1ccc(CC(=O)NCCc2cccc[n+]2C)cc1 [1-Methyl-2-{2-[2-(4-tetradecyloxy-phenyl)-acetylamino]-ethyl}-pyridinium; iodide],15
22,CCCCCCCCCCCCCCOc1ccc(CNC(=O)c2cc[n+](C)cc2)cc1 [1-Methyl-4-(4-tetradecyloxy-benzylcarbamoyl)-pyridinium; iodide],60
23,CCCCCCCCCCCCCCOc1ccc(CC(=O)NCc2cccc[n+]2C)cc1 [1-Methyl-2-{[2-(4-tetradecyloxy-phenyl)-acetylamino]-methyl}-pyridinium; iodide],> 10
24,CCCCCCCCCCCCCCOc1ccccc1CN(Cc1cccc[n+]1C)C(C)=O [2-{[Acetyl-(2-tetradecyloxy-benzyl)-amino]-methyl}-1-methyl-pyridinium; iodide],43
25,CCCCCCCCCCCCCCOc1ccc(CN(Cc2cc[n+](C)cc2)C(C)=O)cc1 [4-{[Acetyl-(4-tetradecyloxy-benzyl)-amino]-methyl}-1-methyl-pyridinium; iodide],1
26,CCCCCCCCCCCCCCOc1ccc(C(=O)NCCc2cccc[n+]2C)cc1 [1-Methyl-2-[2-(4-tetradecyloxy-benzoylamino)-ethyl]-pyridinium; iodide],> 10
27,CCCCCCCCCCCCCCOc1ccc(C(=O)N(Cc2ccc[n+](C)c2)C(C)=O)cc1C(C)(C)C [3-{[Acetyl-(3-tert-butyl-4-tetradecyloxy-benzoyl)-amino]-methyl}-1-methyl-pyridinium; iodide],20
